According to patent publication US12655169B2, “Arabinose and preparation and use thereof” (THOMSON BIOTECH (XIAMEN) PTE. LTD., priority 2022, dated 2026):
Where two headings read alike, the source gives them in different places.

Legend:
[1] = Particle size parameter test (BT-2900 image particle size analysis system); format: physicochemical; conditions: for Average particle size / D10 / D50 / D90: quantity distribution, image particle size analysis
Text: (§1) Example 4. Particle Size Parameters and Powder Characteristics (Quantity Distribution) of L-Arabinose

[2] = Flowability test (particle and powder characteristic analyzer, FT-102D); format: physicochemical
Text: as §1
Example 13. Performance Test Results for the Granules of the Present Disclosure

Humans = assay: Bowel preparation in humans; format: in vivo
Description: Administration Sample: L-Arabinose Prepared in Example 1 Subject: weighing 73 kg Administration Regimen: The subject drank water normally on an empty stomach after getting up in the morning. At 10:06, the subject dissolved 30 g of L-arabinose in about 100-150 mL of mineral water and consumed the solution in about 5 min.

SPF mice = assay: Bowel preparation in mice; format: in vivo
Description: 5.1 Experimental animals and feeding thereof: SPF (Specific pathogen free) mice, 6 weeks old; normal feed was D12450-B feed: 67.35 wt % carbohydrates, 19.2 wt % crude protein, 4.3 wt % fat. The temperature of the room was kept at 24-26° C. with humidity at 40-60%.
5.2 Experimental method and procedure:
The SPF mice were randomly divided into a blank control group, a positive control group and a treatment group, 20 mice per group, half being male and half female. Administration method: Animals in each group were fasted (water was accessible) from last 22:00 before the day of experiment, were each given ⅓ the calculated amount of drug by intragastrical administration at 7:00, 9:00 and 11:00 on the day of experiment, were each given 0.1 mL of purified water at 12:00, 13:00 and 14:00, and were dissected 3.5 h after the last administration.

[3] = Granularity distribution of sample (standard sieve); format: physicochemical
Description: 1 kg of L-arabinose starting material was dissolved in 1.2 kg of purified water at 60° C. After the solution was completely clear, 1 g of activated carbon ([…] of the L-arabinose) was added. The mixture was incubated at 60° C. for 30 min and then subjected to suction filtration under vacuum successively through 25 μm and 0.45 μm filter membranes to remove the activated carbon, and a clear filtered sugar liquid (about 1800 mL in volume) was obtained. About 800 mL of the clear filtered sugar liquid was added to a three-necked flask, and stirred and evaporated under reduced pressure in a water bath set at a temperature of 62° C. until the sugar degree reached 58-60% Brix. A proper amount of L-arabinose was added as seed crystals (as shown in Table 8-1 below, seed crystal with different specifications was selected: 40-60 mesh, 16.5 g; 60-80 mesh, 6 g; 80-100 mesh, 1.5 g). The mixture was stirred (double-layered type of stirring, with two-half-crescent type for the lower layer and three-bladed propeller type for the upper layer) at a rate of 90-110 rpm until the seed crystal was completely dispersed. Then the sugar liquid was added at a rate of 50-100 mL/h in a fed-batch manner for a time period of 12/18 h. After the fed-batch addition was completed, the concentrating was continued for 1-2 h. It was about 14 h from the time the seed crystal was added to the time of discharging.
According to the results shown in Table 8-1, the specific surface area of the seed crystal of 80-100 mesh is relatively […] compared with that of the seed crystal of other specifications (as shown in Table 8-2), but the particle size distribution of the sample obtained by experiment is relatively uniform: the proportion of 20-80 mesh is more than 89.7%, and the maximum proportion is more than 90%, which fully complies with the requirements of the existing pharmacopoeia (Chinese pharmacopoeia (2020)) for granules: granules cannot pass through a No. 1 sieve (10 mesh, 2000 μm) and the total quantity of granules which can pass through a No. 5 sieve (80 mesh, pore size of […]) should not exceed 15%.

[4] = In vitro osmotic pressure test (Vapro Pressure Osmometer); format: physicochemical; conditions: versus sorbitol solution at the same mass concentration 30%
Text: Instrument: Vapro Pressure Osmometer
Materials: L-Arabinose (Prepared According to the Method of Example 1); Sorbitol (Commercially Available Chinese Medicinal Agent)
Procedure: The 4 numbered solutions were each prepared according to the material proportions shown in Table 2 and stirred until they were all clear and transparent.

[5] = Saturation curve and crystallization curve of L-arabinose; format: physicochemical; conditions: for Crystallization mass concentration: cooling 1 °C/h, stirring 100 rpm; for Saturation mass concentration: water
Description: A round-bottom flask was plated in a constant-temperature box with temperature control. To a three-necked round-bottom flask (one flask mouth was plugged with a plastic stopper as a sampling mouth, one flask mouth was used for placing a stirrer, and one flask mouth was used for temperature sensing) were added a certain amount of ionized water and excessive L-arabinose crystal (prepared according to the method of Example 10). The mixture was stirred at 40° C., 49° C., 53° C., 58° C. and 65° C. for 3 h per temperature point, and then let stand for 4 h to allow the undissolved L-arabinose crystal to completely settle. Then the supernatant was collected and filtered through a microporous filter membrane (for filtration using a small injection needle in the constant-temperature box to eliminate the effect of temperature change). The resulting clear liquid was used for concentration determination. A saturation curve was plotted for arabinose: y=0.5927x+23.089 (correlation coefficient R 2=0.99) (see FIG. 4). Clear sugar liquids in which corresponding mass concentrations of L-arabinose were dissolved was prepared, then slowly cooled (1° C./h), and cooled at a constant rate (with stirring at 100 rpm). The crystallization temperature of the sugar liquids with different mass concentrations was observed and recorded. A crystallization curve was plotted for arabinose: y=0.4163x+40.413 (correlation coefficient R 2=1) (see FIG. 4 and Table 15-1).

[6] = Example 8 samples, seed crystal specification and fed-batch time varied
[7] = listed as Example 10 sample of batch 2ª
[8] = post-centrifugation sampling-manual material spreading and drying oven drying

| SMILES | Average particle size [1] [μm] | D10 [1] [μm] | D50 [1] [μm] | D90 [1] [μm] | Bulk density [2] | Compressibility [2] | Floodability index [2] | Flowability (Hausner ratio) [2] | Hausner ratio [2] | Tap density [2] | Angle of repose [2] | Carr flowability index [2] | 20-80 mesh proportion of sample [3, 8] [%] | other results |
| --- | --- | --- | --- | --- | --- | --- | --- | --- | --- | --- | --- | --- | --- | --- |
| O[C@@H]1[C@@H](O)[C@@H](O)OC[C@@H]1O [Example 1, β-L-(+)-arabinose] | 149 | 49 | 138 | 261 | 0.7 g/mL | 17.1% | 75.0 | Good | 1.2 | 0.85 g/mL | – | – | – | span ([1]; particle size analysis): 0.985; Angle of repose ([2]; in ° (unit assumed)): 40.01; Stool passed, first bathroom visit (Humans; 30 g oral, at 10:42 (dose at 10:06)): loose stool; Stool passed, second bathroom visit (Humans; 30 g oral, at 11:11): watery stool; Stool passed, third bathroom visit (Humans; 30 g oral, at 11:55): watery stool with little residue; Stool passed, fourth bathroom visit (Humans; 30 g oral, at 13:27): light yellow watery stool without residue; Time from administration to first stool (Humans; one subject, 30 g oral in 100-150 mL water): About 40 min; Dosage relative to the positive control group to achieve the same effect (SPF mice; 12 g/kg vs PEG 31.5 g/kg): 38%; Residue in the rectum and colon after the dissection (SPF mice; dissected 3.5 h after the last administration, L-arabinose 12 g/kg, PEG 31.5 g/kg): no residue was left in the rectum and colon; Stools observed before the dissection (SPF mice; intragastrical, three doses, L-arabinose 12 g/kg, PEG 31.5 g/kg): Watery and loose stools; Granularity distribution of sample (standard sieve) 20-80 mesh [3, 6]: 71.2%; Granularity distribution of sample (standard sieve) <80 mesh [3, 6]: 5.4%; Granularity distribution of sample (standard sieve) >20 mesh [3, 6]: 23.4% |
| O=C[C@H](O)[C@@H](O)[C@@H](O)CO [Example 10 batch 2, L-arabinose] | – | – | – | – | 0.68 | 15.9 | 75.0 | Good | 1.2 | 0.81 | 30.95 | 102.5 | 96.4 | Average particle size [1, 7]: 129.2 μm; D10 [1, 7]: 41.88 μm; D50 [1, 7]: 116.4 μm; D90 [1, 7]: 237.9 μm; 20-80 mesh proportion of sample ([3]; screw feeding-back-mixing bed drying): 79.8% |
| O=C[C@H](O)[C@@H](O)[C@@H](O)CO [Example 11, L-arabinose] | 148.8 | 164.8 | 288.1 | 448.8 | 0.5 | 23.1 | 75.0 | Acceptable | 1.3 | 0.65 | 34.29 | 102.0 | 90.6 | – |
| O=C[C@H](O)[C@@H](O)[C@@H](O)CO [Example 12, L-arabinose] | 185.5 | 175.1 | 305.2 | 481.8 | 0.48 | 24.4 | 75.0 | Good | 1.3 | 0.64 | 39.74 | 99 | 93.57 | – |
| O[C@@H]1[C@@H](O)[C@@H](O)OC[C@@H]1O [L-arabinose, β-L-(+)-arabinose] | – | – | – | – | – | – | – | – | – | – | – | – | – | Percent increase in osmotic pressure [4]: 22.8%; Supersaturation coefficient ([5]; 40 °C): 1.233; Crystallization mass concentration ([5]; 40 °C): 57.07%; Supersaturation coefficient ([5]; 49 °C): 1.154; Crystallization mass concentration ([5]; 49 °C): 60.81%; Supersaturation coefficient ([5]; 53 °C): 1.134; Crystallization mass concentration ([5]; 53 °C): 62.48%; Supersaturation coefficient ([5]; 58 °C): 1.135; Crystallization mass concentration ([5]; 58 °C): 64.56%; Supersaturation coefficient ([5]; 65 °C): 1.097; Crystallization mass concentration ([5]; 65 °C): 67.47%; Saturation mass concentration ([5]; 40 °C): 46.3%; Saturation mass concentration ([5]; 49 °C): 52.7%; Saturation mass concentration ([5]; 53 °C): 55.1%; Saturation mass concentration ([5]; 58 °C): 56.9%; Saturation mass concentration ([5]; 65 °C): 61.5% |
